Measured values taken from publication PMC10744032, “Regioselective and Stereoselective Synthesis of Parthenolide Analogs by Acyl Nitroso-Ene Reaction and Their Biological Evaluation against Mycobacterium tuberculosis” (International Journal of Molecular Sciences, 2023).
Converted amounts (≈) assume the structure as drawn. Like-named read-outs stand apart in the source and are kept apart here.

Tests used:
[1] = Cytotoxicity by live imaging (Hoechst 33342 / propidium iodide); type: cell-based; conditions: mouse
Protocol: The cytotoxicity of the compounds to BALB/3T3 cells was determined using live imaging following both Hoechst 33342 and propidium iodide staining. Briefly, BALB/3T3 cells were seeded in a 384-well plate and 24 h later, the compounds were added (0, 12.5, 25, 50, and 100 µM) to the culture medium, as well as Hoechst 33342 and propidium iodide (PI). Then, 24 h and 48 h after the compounds were added, live imaging was performed using an In Cell Analyzer 6000 (STP GE Healthcare, Glascow, UK). The cytotoxicity was defined based on the ratio of the population of dead or dying cells (propidium iodide staining) to the total cell population (Hoechst staining), as determined using Columbus software 2.9.1 (PerkinElmer Informatics, WA, USA). The compounds were tested in triplicate. Carfilzomib (500, 250, 140, and 60 nM) was used as the positive control in this assay.

[2] = Kinetic solubility in PBS by LC-MS/MS; type: physicochemical; conditions: for solubility at 24 h: kinetic from dmso stock; for fold higher solubility in PBS compared to parthenolide: relative to parthenolide
Protocol: The kinetic solubility was determined using LC–MS/MS analysis in PBS at pH 7.4. Briefly, a 10 mM 100% DMSO solution of the compound was diluted 50-fold either in PBS at pH 7.4 (in triplicate) or in DMSO in polypropylene tubes (n = 3 for PBS and n = 6 for DMSO). The tubes were gently shaken for 24 h at 21 °C. Then, the three PBS tubes and three of the six DMSO tubes were centrifuged for 5 min at 4000 rpm and filtered over 0.45 μm filters (Millex-LH Millipore). Then, 40 μL of each solution was diluted in 160 μL of MeCN and 40 µL of Milli-Q water and transferred to matrix tubes for the LC–MS/MS analysis. The solubility was determined according to the following formula: Solubility (μM) = (AUC (filtered PBS)/AUC (not filtered DMSO)) × 200. The test was validated if (AUC (not filtered DMSO) − AUC (filtered DMSO))/AUC (not filtered DMSO) ≤ 10%.

M. tuberculosis H37Rv = assay: microbe, parasite or virus in culture; type: cell-based, Mycobacterium tuberculosis; conditions: Mycobacterium tuberculosis, H37RV, 168 h, 7 days incubation, resazurin readout, tested 300 to 2.3 µM, read-out: MIC90 M. tuberculosis (REMA)
[3] = test system: M. tuberculosis H37Rv expressing GFP (H37Rv::pJKD6); assay: microbe, parasite or virus in culture; type: cell-based, Mycobacterium tuberculosis; conditions: Mycobacterium tuberculosis, H37RV, 168 h; read-out: MIC98 M. tuberculosis (GFP)
[4] = test system: Staphylococcus aureus (SH1000); assay: microbe, parasite or virus in culture; type: cell-based; conditions: Staphylococcus aureus; 5 h incubation, resazurin readout; tested 300 to 2.3 µM; read-out: MIC90 S. aureus (REMA)
[5] = BALB/3T3 cells, 0, 12.5, 25, 50, 100 µM, imaging at 24 h and 48 h, read-out: Cytotoxicity Balb3T3 CC50
[6] = aqueous buffer, kinetic solubility, PBS pH 7.4, 24 h at 21 °C, from 10 mM DMSO solution diluted 50-fold, read-out: Solubility

| SMILES | CC50 [1] | solubility at 24 h ([2]; 21 °C, pH 7.4, aqueous buffer) | MIC90 (M. tuberculosis H37Rv) | MIC [3] | MIC90 [4] | fold higher solubility in PBS compared to parthenolide [2] | CC50 [1, 5] | solubility at 24 h [2, 6] |
| --- | --- | --- | --- | --- | --- | --- | --- | --- |
| C=C1CC[C@H]2C(=C)C(=O)O[C@@H]2[C@@H]2O[C@]2(C)CC[C@H]1N(O)C(=O)Nc1ccccc1 [Compound 4, 1-hydroxy-1-[(1S,2S,4R,7R,11S)-4-methyl-8,12-dimethylene-13-oxo-3,14-dioxatricyclo[9.3.0.02,4]tetradecan-7-yl]-3-phenyl-urea] | 25 µM | 186 µM (≈ 74.1 µg/mL) | 19 to 38 µM (≈ 7.57 to 15.1 µg/mL) | 9.4 to 19 µM (≈ 3.75 to 7.57 µg/mL) | > 300 µM | – | – | – |
| C=CCOC(=O)N(O)[C@@H]1CC[C@@]2(C)O[C@H]2[C@H]2OC(=O)C(=C)[C@@H]2CCC1=C [Compound 13, Allyl-N-hydroxy-N-[(1S,2S,4R,7R,11S)-4-methyl-8,12-dimethylene-13-oxo-3,14-dioxatricyclo [9.3.0.02,4]tetradecan-7-yl]carbamate] | > 12.5 µM | 192 µM (≈ 69.8 µg/mL) | 38 to 75 µM (≈ 13.8 to 27.3 µg/mL) | 38 µM (≈ 13.8 µg/mL) | > 300 µM | – | – | – |
| C=C1CC[C@H]2C(=C)C(=O)O[C@@H]2[C@@H]2O[C@]2(C)CC[C@H]1N(O)C(=O)NCc1ccccc1 [Compound 6, 3-benzyl-1-hydroxy-1-[(1S,2S,4R,7R,11S)-4-methyl-8,12-dimethylene-13-oxo-3,14-dioxatricyclo [9.3.0.02,4]tetradecan-7-yl]urea] | > 25 µM | 196 µM (≈ 80.8 µg/mL) | 38 to 75 µM (≈ 15.7 to 30.9 µg/mL) | 19 to 38 µM (≈ 7.84 to 15.7 µg/mL) | > 300 µM | – | – | – |
| C=C1CC[C@H]2C(=C)C(=O)O[C@@H]2[C@@H]2O[C@]2(C)CC[C@H]1N(O)C(=O)Nc1ccc(F)cc1 [Compound 8, 3-(4-fluorophenyl)-1-hydroxy-1-[(1S,2S,4R,7R,11S)-4-methyl-8,12-dimethylene-13-oxo-3,14-dioxatricyclo[9.3.0.02,4]tetradecan-7-yl]urea] | > 25 µM | 188 µM (≈ 78.3 µg/mL) | 19 µM (≈ 7.91 µg/mL) | 19 µM (≈ 7.91 µg/mL) | – | 1.3 fold | – | – |
| CO[C@H]1/C=C/O[C@@]2(C)Oc3c(C)c(O)c4c(O)c(c(/C=N/N5CCN(C)CC5)c(O)c4c3C2=O)NC(=O)/C(C)=C\C=C\[C@H](C)[C@H](O)[C@@H](C)[C@@H](O)[C@@H](C)[C@H](OC(C)=O)[C@@H]1C [Rifampicin, reference compound] | – | – | < 2.3 µM | < 2.3 µM | < 2.3 µM | – | – | – |
| C=C1CC[C@H]2C(=C)C(=O)O[C@@H]2[C@@H]2O[C@]2(C)CC[C@H]1N(O)C(=O)OCC(Cl)(Cl)Cl [Compound 15, 2,2,2-trichloroethyl-N-hydroxy-N-[(1S,2S,4R,7R,11S)-4-methyl-8,12-dimethylene-13-oxo-3,14-dioxatricyclo[9.3.0.02,4]tetradecan-7-yl]carbamate] | 12.5 µM | 184 µM (≈ 83.7 µg/mL) | 38 µM (≈ 17.3 µg/mL) | 19 µM (≈ 8.64 µg/mL) | > 300 µM | – | – | – |
| C=C1CC[C@H]2C(=C)C(=O)O[C@@H]2[C@@H]2O[C@]2(C)CC[C@H]1N(O)C(=O)Oc1ccc(F)cc1 [Compound 16, (4-fluorophenyl)-N-hydroxy-N-[(1S,2S,4R,7R,11S)-4-methyl-8,12-dimethylene-13-oxo-3,14-dioxatricyclo[9.3.0.02,4]tetradecan-7-yl]carbamate] | – | – | 75 µM (≈ 31.3 µg/mL) | 38 to 75 µM (≈ 15.9 to 31.3 µg/mL) | > 300 µM | – | 25 µM | 182 µM (≈ 76 µg/mL) |
| C=C1CC[C@H]2C(=C)C(=O)O[C@@H]2[C@@H]2O[C@]2(C)CC[C@H]1N(O)C(N)=O [Compound 9, 1-hydroxy-1-[(1S,2S,4R,7R,11S)-4-methyl-8,12-dimethylene-13-oxo-3,14-dioxatricyclo[9.3.0.02,4]tetradecan-7-yl]urea] | > 100 µM | > 200 µM | ~150 µM (≈ 48.4 µg/mL) | 75 to 150 µM (≈ 24.2 to 48.4 µg/mL) | – | 1.5 fold | – | – |
| C=C1CC[C@H]2C(=C)C(=O)O[C@@H]2[C@@H]2O[C@]2(C)CC[C@H]1N(O)C(=O)NCCCOCC [Compound 11, 3-(3-ethoxypropyl)-1-hydroxy-1-[(1S,2S,4R,7R,11S)-4-methyl-8,12-dimethylene-13-oxo-3,14-dioxatricyclo[9.3.0.02,4]tetradecan-7-yl]urea] | > 100 µM | 197 µM (≈ 80.5 µg/mL) | 150 µM (≈ 61.3 µg/mL) | 150 µM (≈ 61.3 µg/mL) | – | – | – | – |
| C=C1CC[C@H]2C(=C)C(=O)O[C@@H]2[C@@H]2O[C@]2(C)CC[C@H]1N(O)C(=O)Nc1ccc(OC)cc1 [Compound 7, 1-hydroxy-3-(4-methoxyphenyl)-1-[(1S,2S,4R,7R,11S)-4-methyl-8,12-dimethylene-13-oxo-3,14-dioxatricyclo[9.3.0.02,4]tetradecan-7-yl]urea] | 25 µM | 184 µM (≈ 78.8 µg/mL) | 19 µM (≈ 8.14 µg/mL) | 19 µM (≈ 8.14 µg/mL) | – | – | – | – |
| C=C1CC[C@H]2C(=C)C(=O)O[C@@H]2[C@@H]2O[C@]2(C)CC[C@H]1N(O)C(=O)Oc1ccc2c(c1)OCO2 [Compound 20, 1,3-benzodioxol-5-yl-N-hydroxy-N-[(1S,2S,4R,7R,11S)-4-methyl-8,12-dimethylene-13-oxo-3,14-dioxatricyclo[9.3.0.02,4]tetradecan-7-yl]carbamate] | – | – | 75 µM (≈ 33.3 µg/mL) | 37.5 to 75 µM (≈ 16.6 to 33.3 µg/mL) | – | – | > 12.5 µM | 182 µM (≈ 80.7 µg/mL) |
| C=C1CC[C@H]2C(=C)C(=O)O[C@@H]2[C@@H]2O[C@]2(C)CC/C1=N/O [Compound 23, (1S,2S,4R,7Z,11S)-7-hydroxyimino-4-methyl-8,12-dimethylene-3,14-dioxatricyclo[9.3.0.02,4] tetradecan-13-one] | – | 186 µM (≈ 51.6 µg/mL) | – | – | > 300 µM | – | – | – |
| C=C1CC[C@H]2C(=C)C(=O)O[C@@H]2[C@@H]2O[C@]2(C)CC[C@H]1N(O)C(=O)OCC(C)C [Compound 18, Isobutyl-N-hydroxy-N-[(1S,2S,4R,7R,11S)-4-methyl-8,12-dimethylene-13-oxo-3,14-dioxatricyclo[9.3.0.02,4]tetradecan-7-yl]carbamate] | 50 µM | 190 µM (≈ 72.1 µg/mL) | 38 µM (≈ 14.4 µg/mL) | 19 µM (≈ 7.21 µg/mL) | – | – | – | – |
| C=C1CC[C@H]2C(=C)C(=O)O[C@@H]2[C@@H]2O[C@]2(C)CC[C@H]1N(O)C(=O)Oc1ccccc1 [Compound 17, Phenyl-N-hydroxy-N-[(1S,2S,4R,7R,11S)-4-methyl-8,12-dimethylene-13-oxo-3,14-dioxatricyclo[9.3.0.02,4]tetradecan-7-yl]carbamate] | – | – | 38 µM (≈ 15.2 µg/mL) | 38 µM (≈ 15.2 µg/mL) | – | – | 12.5 µM | 189 µM (≈ 75.5 µg/mL) |
| C=C1CC[C@H]2C(=C)C(=O)O[C@@H]2[C@@H]2O[C@]2(C)CC[C@H]1N(O)C(=O)OC1CCOCC1 [Compound 22, Tetrahydropyran-4-yl-N-hydroxy-N-[(1S,2S,4R,7R,11S)-4-methyl-8,12-dimethylene-13-oxo-3,14-dioxatricyclo[9.3.0.02,4]tetradecan-7-yl]carbamate] | > 50 µM | 193 µM (≈ 78.6 µg/mL) | 75 µM (≈ 30.6 µg/mL) | 38 µM (≈ 15.5 µg/mL) | – | – | – | – |
| C=C1CC[C@H]2C(=C)C(=O)O[C@@H]2[C@@H]2O[C@]2(C)CC[C@H]1N(O)C(=O)OCCOC [Compound 21, 2-methoxyethyl-N-hydroxy-N-[(1S,2S,4R,7R,11S)-4-methyl-8,12-dimethylene-13-oxo-3,14-dioxatricyclo[9.3.0.02,4]tetradecan-7-yl]carbamate] | 100 µM | > 200 µM | 150 µM (≈ 57.2 µg/mL) | 150 to 300 µM (≈ 57.2 to 114 µg/mL) | – | – | – | – |
| C/C1=C\CC[C@@]2(C)O[C@H]2[C@H]2OC(=O)C(C)[C@@H]2CC1 (stereo partly drawn) [Compound 26, (1S,2S,4R,7E,11S)-4,8,12-trimethyl-3,14-dioxatricyclo[9.3.0.02,4]tetradec-7-en-13-one] | – | – | 300 µM (≈ 75.1 µg/mL) | 300 µM (≈ 75.1 µg/mL) | – | – | – | – |
| C=C1CC[C@H]2C(=C)C(=O)O[C@@H]2[C@@H]2O[C@]2(C)CC[C@H]1N(O)C(=O)Nc1ccc2c(c1)OCO2 [Compound 10, 3-(1,3-benzodioxol-5-yl)-1-hydroxy-1-[(1S,2S,4R,7R,11S)-4-methyl-8,12-dimethylene-13-oxo-3,14-dioxatricyclo[9.3.0.02,4]tetradecan-7-yl]urea] | 12.5 µM | 182 µM (≈ 80.5 µg/mL) | 38 µM (≈ 16.8 µg/mL) | 19 µM (≈ 8.41 µg/mL) | – | – | – | – |
| C=C1CC[C@H]2C(=C)C(=O)O[C@@H]2[C@@H]2O[C@]2(C)CC[C@H]1N(O)C(=O)OCC [Compound 19, Ethyl-N-hydroxy-N-[(1S,2S,4R,7R,11S)-4-methyl-8,12-dimethylene-13-oxo-3,14-dioxatricyclo[9.3.0.02,4]tetradecan-7-yl]carbamate] | > 12.5 µM | 198 µM (≈ 69.6 µg/mL) | 75 µM (≈ 26.4 µg/mL) | 75 µM (≈ 26.4 µg/mL) | – | – | – | – |
